{
  "source": "patent US11452781B2",
  "about": "“Method of preventing and treating type 1 diabetes, allograft rejection and lung fibrosis (by targeting the ATP/P2X7R axis)” (CHILDREN'S MEDICAL CENTER CORPORATION, priority 2013, dated 2022)",
  "key": {"naïve CD4+ T-cells [1]": {"system": "naïve CD4+ T-cells", "experiment": "ELISPOT, naïve CD4+ T cells stimulated with anti-CD3-Ig and anti-CD28-Ig", "type": "cell-based, mouse", "description": "(§1) The effect of P2X7R targeting was tested by treatment with oATP during T-cell activation. […] Similarly, in a T-cell proliferation assay, CFSE-labeled naïve CD4^+ T-cells were stimulated for 4 days with 0.5 μg/ml anti-CD3-Ig and anti-CD28-Ig; treatment with 100 μM oATP diminished CD4^+ T-cell proliferation (FIG. 5B, right panel) compared to controls (FIG. 5B, left panel).\nTo address the mechanisms underlying P2X7R targeting mediated inhibition of cardiac transplant rejection, the inventors analyzed the effect of P2X7R targeting on T-cell activation and Th1/Th17 differentiation in vitro. […] The effect of in vitro P2X7R targeting with oATP during CD4+ T-cell activation was tested. […] Second, in a T-cell proliferation assay, carboxyfluorescein diacetate succinimidyl ester-labeled naïve CD4+ T cells were stimulated for 96 hours with 0.5 μg/mL anti-CD3-Ig and anti-CD28-Ig, and treatment with 100 μM oATP diminished CD4+ T cell proliferation in comparison with controls. […] The inventors next tested the effect of in vitro P2X7R targeting during a Th1/Th17 generation and differentiation assay. […] P2X7R targeting with oATP inhibited Th0 conversion into both Th1 and Th17, as assessed by the percentage of IFN-γ+ and IL-17+ cells, respectively. The inventors show, therefore, that P2X7R targeting through oATP suppresses activation, proliferation, and Th1/Th17 differentiation of CD4+ T cells. The inventors then further investigated the role of P2X7R on T-cell activation and Th1/Th17 differentiation by genetic upregulation of P2X7R. P2X7R cDNA was transduced by using a pMY-IRES-GFP retroviral vector into CD4+ T cells (pmY-P2X7R CD4+ T cells), and upregulation of P2X7R expression was confirmed by Western blot. pmY-P2X7R CD4+ T cells were then challenged with anti-CD3-Ig/anti-CD28-Ig stimulation in an ELISPOT assay. […] In a Th1/Th17 generation assay, pmY-P2X7R CD4+ T cells seemed to display increased differentiation capacity in comparison with pmY-mock CD4+ T cells, as assessed by T-bet and ROR-γ expression.\nSeveral key components of T-cell receptor signaling involved in the alloimmune response were examined, and the phosphorylation kinetics following in vitro anti-CD3-Ig/anti-CD28-Ig-mediated CD4+ T-cell activation was evaluated by using the Luminex assay. […] The inventors first confirmed that Colivelin (Col) was able to restore the activation-induced phosphorylation of STAT3 in a dose-dependent manner in oATP-treated CD4+ T cells by Western blotting. […] The effect of oATP and Colivelin on STAT3 phosphorylation and T-cell function was also evaluated following cardiac transplantation."}, "naïve CD4+ T-cells [2]": {"system": "naïve CD4+ T-cells", "experiment": "CFSE T-cell proliferation assay, anti-CD3-Ig/anti-CD28-Ig", "type": "cell-based, mouse", "conditions": "100 μM oATP, 4 days (96 hours)", "description": "as §1\nTo address the mechanisms underlying P2X7R targeting mediated inhibition of cardiac transplant rejection, the inventors analyzed the effect of P2X7R targeting on T-cell activation and Th1/Th17 differentiation in vitro. […] The effect of in vitro P2X7R targeting with oATP during CD4+ T-cell activation was tested. […] Second, in a T-cell proliferation assay, carboxyfluorescein diacetate succinimidyl ester-labeled naïve CD4+ T cells were stimulated for 96 hours with 0.5 μg/mL anti-CD3-Ig and anti-CD28-Ig, and treatment with 100 μM oATP diminished CD4+ T cell proliferation in comparison with controls. […] P2X7R targeting with oATP inhibited Th0 conversion into both Th1 and Th17, as assessed by the percentage of IFN-γ+ and IL-17+ cells, respectively. […] In a Th1/Th17 generation assay, pmY-P2X7R CD4+ T cells seemed to display increased differentiation capacity in comparison with pmY-mock CD4+ T cells, as assessed by T-bet and ROR-γ expression."}, "[3]": {"system": "C57BL/6 mice transplanted with BALB/c islets", "experiment": "Allogeneic islet transplantation, BALB/c islets into diabetic C57BL/6 mice: graft survival", "type": "in vivo, mouse"}, "[4]": {"system": "B6 recipients of BALB/c lung allografts", "experiment": "Mouse orthotopic lung transplant, BALB/c donor and C57BL/6 recipient", "type": "in vivo", "method": "Orthotopic left lung transplants were performed as previously described {Bizargity, #22; Iken, #21}. Briefly, donor mice were anesthetized with ketamine and xylazine, intubated with a 22 G Angiocath, and ventilated with isoflurane/oxygen. Lungs were flushed with ice cold phosphate buffered saline, left lung harvested and cuffs placed in the pulmonary artery, pulmonary vein and bronchus. Recipient mice were anesthetized and ventilated with isoflurane/oxygen, and left lung transplants performed via a thoracotomy and implantation of the three-cuffed hilar structures. Transplanted lungs were harvested 15 to 60-70 days following transplantation.\nAllografts were evaluated 15, 30, and 60-70 days after transplant.\nOutcome Measures—In vivo assessment of transplanted lung function was performed by thoracic CT scan imaging and measuring peak airway pressures (PawP) as previously described {Bizargity, #22}. […] Flow cytometry and enzyme-linked immunosorbent spot assay (ELISPOT) for interferon (IFN)-γ and interleukin (IL)-4 were performed as previously described {Vergani, #25; Vergani, #9}."}, "C57BL/6 splenocytes [5]": {"system": "C57BL/6 splenocytes", "experiment": "In vitro alloimmune ELISPOT, C57BL/6 responder splenocytes vs irradiated BALB/c splenocytes", "type": "cell-based, mouse", "from_the_text": "The effect of increasing doses of oATP on Th1/Th17 cytokine levels was next tested. A dose-dependent response was evident, in which oATP reduced the number of cells producing Th1 cytokines (IFN-γ and IL-2) and Th17 cytokines (IL-6 and IL-17). Because it has been reported that oATP may affect other P2XRs, the inventors made use of the availability of the selective P2X1R inhibitor NF 449 and of the selective P2X3R inhibitor NF 110. C57BL/6 splenocytes were stimulated with irradiated BALB/c splenocytes, and IFN-γ production was evaluated in the presence of these inhibitors."}, "C57BL/6 splenocytes [6]": {"system": "C57BL/6 splenocytes", "experiment": "Apoptosis of allo-challenged splenocytes (annexin V, FACS)", "conditions": "oATP, 24 h", "method": "To confirm the data obtained in vivo, the effect of targeting P2X7R in vitro was evaluated using alloimmune-relevant assays. Responder splenocytes from C57BL/6 mice were challenged with irradiated stimulator splenocytes from BALB/c mice. The numbers of cells producing IFN-γ and IL-4 were evaluated in an ELISPOT assay in the presence of increasing concentrations of oATP."}, "[7]": {"system": "P2X7R−/− mice transplanted with BALB/c hearts", "experiment": "Cardiac transplantation into P2X7R-/- mice", "type": "in vivo, mouse", "conditions": "P2X7R−/− recipients", "from_the_text": "oATP has been proposed to exert secondary immunomodulatory mechanisms, primarily related to the inhibition of the remaining P2XsR. To verify that the effect on the prevention of cardiac transplant rejection was predominantly due to P2X7R inhibition, the P2X7R−/− C57BL/6 mouse model was used. BALB/c hearts were transplanted into P2X7R−/− mice, and cardiac transplant survival was compared with that of wild-type recipients."}, "islet allografts": {"system": "islet allografts", "experiment": "Islet allograft pathology, RT-PCR transcripts, insulin and glucagon content", "type": "in vivo, mouse", "description": "The presence of […] was then analyzed in the graft infiltrate by quantification, via RT-PCR, by assessing intra-graft Tbet and Rorc mRNA expression."}, "ABM CD4+ TCR-Tg T cells": {"system": "ABM CD4+ TCR-Tg T cells", "experiment": "Alloantigen-specific ABM CD4+ TCR-Tg T cells, bm12 hearts into C57BL/6 Rag-/- mice", "type": "in vivo, mouse", "from_the_text": "To address whether the inhibition of the effector T-cell compartment is related to reduced priming and expansion of alloreactive T cells or to their increased apoptosis, alloreactive-specific T cells were tracked in a transgenic model of cardiac transplantation. Bm12 hearts were transplanted into C57BL/6 Rag−/− mice, and 3×10^6 ABM CD4+ TCR-Tg T cells (specific for bm12 major histocompatibility complex class II antigens) were subsequently adoptively transferred into cardiac transplant recipients."}, "[8]": {"system": "C57BL/6 mice transplanted with bm12 hearts", "experiment": "Chronic cardiac transplant rejection, bm12 donors to C57BL/6 recipients", "type": "in vivo, mouse", "description": "To evaluate the importance of P2X7R signaling and targeting in a clinically relevant setting, the effect of oATP treatment in a model of cardiac transplant chronic rejection (bm12 donors to C57BL/6 recipients) was tested. […] Cardiac allograft pathology was assessed 40 days after transplantation of bm12 hearts into C57BL/6 mice."}},
  "note": "Where “and” joins values, the source holds several entries; their conditions need not be identical. Equal entries are not always repeated. Entries after “also recorded” stand apart in the source; their conditions may differ.",
  "data": [
    {"substance": "periodate-oxidized ATP [oATP]", "values": [
      {"measurement": "number of IFN-γ-producing CD4+ T-cells", "setting": "naïve CD4+ T-cells [1]; 100 μM oATP, 24 hours", "result": "significantly reduced; also recorded: suppressed"},
      {"measurement": "expression levels of the P2XsR", "setting": "naïve CD4+ T-cells [1]; oATP present during stimulation", "result": "not influenced"},
      {"measurement": "CD4+ T-cell proliferation", "setting": "naïve CD4+ T-cells [2]", "result": "diminished; also recorded: suppressed"},
      {"measurement": "islet allograft survival (in words)", "setting": "[3]; mouse, in vivo", "result": "prolongs graft survival"},
      {"measurement": "mice with long-term graft function at 100 days (of n)", "setting": "[3]; mouse, in vivo", "result": "3 out of 10 and 3 of 10"},
      {"measurement": "islet allograft mean survival time (MST)", "setting": "[3]; oATP daily i.p. 14-15 days, rapamycin 0.1 mg/kg 10 days", "result": 22, "unit": "days"},
      {"measurement": "lung function (PawP)", "setting": "[4]; 15 to ≥60 days", "result": "significantly improved"},
      {"measurement": "percentage of Th17 cells", "setting": "[4]; 15 days", "result": "not a significant difference"},
      {"measurement": "total number of Th17 cells", "setting": "[4]; 15 days", "result": "reduction; also recorded: fewer"},
      {"measurement": "total number of Treg", "setting": "[4]; 15 days", "result": "reduction; also recorded: fewer"},
      {"measurement": "BAL ATP levels", "setting": "[4]; 15 days post transplant", "result": "significant reduction"},
      {"measurement": "acute rejection, comparison of treatments (FIG. 17)", "setting": "[4]; 30 days, CSA 10 mg/kg/day, CTLA-4Ig 250 μg, oATP 250 μg/day, Rap 0.1 mg/kg/day", "result": "better outcomes than cyclosporine alone; also recorded: more robust as compared to CSA"},
      {"measurement": "thoracic CT imaging of left lung allografts", "setting": "[4]; all three time points", "result": "little infiltrate"},
      {"measurement": "number of leucocytes and lymphocytes isolated from lung allografts", "setting": "[4]; day 15, flow cytometry, vs untreated", "result": "nearly half; also recorded: significantly fewer"},
      {"measurement": "effector memory T cells (CD44highCD62Llow)", "setting": "[4]; lung allograft T cells", "result": "inhibitory effect; also recorded: significant reduction"},
      {"measurement": "IFN-γ and IL-4 response of isolated T cells (ELISPOT)", "setting": "[4]; most pronounced after 15 days", "result": "impaired"},
      {"measurement": "CD4 and CD8 T cells within lung allografts", "setting": "[4]; mouse, in vivo", "result": "decrease"},
      {"measurement": "amount of inflammation (score 0-4) / histology", "setting": "[4]; mouse, in vivo", "result": "remarkable reduction; also recorded: limited disease"},
      {"measurement": "percentage of CD8 Tcm (CD8+CD44+CD62L+CCR7+)", "setting": "[4]; mouse, in vivo", "result": "increased"},
      {"measurement": "percentage of Treg", "setting": "[4]; mouse, in vivo", "result": "not a remarkable difference"},
      {"measurement": "lung allograft survival / function", "setting": "[4]; oATP daily IP", "result": "> 60", "unit": "days"},
      {"measurement": "lung function (PawP) after rescue dosing", "setting": "[4]; oATP days 15-30", "result": "improved; also recorded: significant improvement"},
      {"measurement": "IL-4 production", "setting": "C57BL/6 splenocytes [5]; increasing concentrations of oATP", "result": "dose-dependent increase"},
      {"measurement": "number of cells producing Th1 (IFN-γ, IL-2) and Th17 (IL-6, IL-17) cytokines", "setting": "C57BL/6 splenocytes [5]; increasing doses, dose-dependent", "result": "reduced"},
      {"measurement": "percentage of apoptotic cells (annexin V+)", "setting": "C57BL/6 splenocytes [6]", "result": "no increase"},
      {"measurement": "ability to prolong cardiac transplant survival", "setting": "[7]", "result": "severely altered"},
      {"measurement": "islet structure, insulin and glucagon staining", "setting": "islet allografts; day 14 (oATP), long-term (oATP+rapamycin)", "result": "preserved insulin staining; also recorded: maintained"},
      {"measurement": "reduction of Tbet mRNA expression vs untreated", "setting": "islet allografts; day 14, n=3", "result": "threefold decrease"},
      {"measurement": "TCR-Tg T-cell apoptosis", "setting": "ABM CD4+ TCR-Tg T cells; 4 days following adoptive transfer", "result": "without substantial differences"},
      {"measurement": "ABM CD4+ TCR-Tg T-cell proliferation (CFSE dilution)", "setting": "ABM CD4+ TCR-Tg T cells; mouse, in vivo", "result": "decrease"},
      {"measurement": "numbers of Teffs and Th17 cells within the Tg population", "setting": "ABM CD4+ TCR-Tg T cells; mouse, in vivo", "result": "marked reduction"},
      {"measurement": "numbers of ABM CD4+ TCR-Tg T cells", "setting": "ABM CD4+ TCR-Tg T cells; seven days posttransplantation", "result": "reduced numbers"},
      {"measurement": "cardiac allograft pathology (infiltration, coronaropathy)", "setting": "[8]; 40 days after transplantation", "result": "only mild cellular infiltration and the absence of coronaropathy"},
      {"measurement": "IFN-γ-producing cells (ELISPOT)", "setting": "[8]; mouse, in vivo", "result": "reduced number"},
      {"measurement": "IL-4-producing cells (ELISPOT)", "setting": "[8]; mouse, in vivo", "result": "increased number"}
    ]}
  ]
}
